Values after ≈ are worked out from the molar mass of the structure shown. Active and inactive are the calls of the source. No cut-off for these calls is given here.
Assays:
in vitro [1] = conditions: human, microsomes
in vitro [2] = conditions: human, microsomes; remark: listed apart in the source
in vivo [3] = conditions: mouse, plasma
in vivo [4] = conditions: rat, urine, po, 10 mg/kg
in vivo [5] = conditions: rhesus monkey, iv, 1 mg/kg
in vitro [6] = conditions: rat, plasma
in vivo [7] = conditions: rat, iv, 5 mg/kg
in vivo [8] = conditions: rat, iv, 5 mg/kg; remark: listed apart in the source
Cynomolgus monkey [9] = assay: animal or person; conditions: Macaca fascicularis, po, 72 h, read-out: INH
Homo sapiens [10] = organism: Homo sapiens; conditions: 10 uM
physchem [11] = conditions: buffer, pH 7
in vitro [12] = conditions: rhesus monkey, plasma
in vivo [13] = conditions: rhesus monkey, iv, 1 mg/kg; remark: listed apart in the source
physchem [14] = conditions: fasted state simulated intestinal fluid (FaSSIF)
[15] = target: Tyrosine-protein kinase BTK (Mus musculus) (UniProt P35991); conditions: 0.5 mg/kg
Sequence of Tyrosine-protein kinase BTK (Mus musculus) (P35991 whole entry): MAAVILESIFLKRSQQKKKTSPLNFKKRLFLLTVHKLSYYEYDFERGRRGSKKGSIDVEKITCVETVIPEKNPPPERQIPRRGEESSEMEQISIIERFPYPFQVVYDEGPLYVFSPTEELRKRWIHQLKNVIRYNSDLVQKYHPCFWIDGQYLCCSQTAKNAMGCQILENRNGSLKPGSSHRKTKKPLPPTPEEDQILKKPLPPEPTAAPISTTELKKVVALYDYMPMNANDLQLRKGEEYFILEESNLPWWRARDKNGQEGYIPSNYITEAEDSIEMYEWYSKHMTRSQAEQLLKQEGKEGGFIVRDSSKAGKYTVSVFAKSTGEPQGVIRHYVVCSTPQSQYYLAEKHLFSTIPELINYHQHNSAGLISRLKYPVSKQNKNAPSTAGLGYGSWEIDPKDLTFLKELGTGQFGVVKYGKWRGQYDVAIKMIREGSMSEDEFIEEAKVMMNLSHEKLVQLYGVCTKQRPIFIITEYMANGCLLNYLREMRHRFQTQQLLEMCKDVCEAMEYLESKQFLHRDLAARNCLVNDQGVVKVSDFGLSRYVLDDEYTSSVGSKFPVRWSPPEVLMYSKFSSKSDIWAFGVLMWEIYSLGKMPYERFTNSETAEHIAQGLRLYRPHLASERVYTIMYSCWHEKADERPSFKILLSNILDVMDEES

in vivo [16] = conditions: mouse, iv, 2 mg/kg
Mus musculus [17] = organism: Mus musculus; assay: animal or person; conditions: DBA1/J, po, 912 h, read-out: INH
in vivo [18] = conditions: rhesus monkey, po, 2 mg/kg
[19] = target: Tyrosine-protein kinase BTK (Mus musculus) (UniProt P35991); conditions: NZB/WF1, 0.5 mg/kg
in vivo [20] = conditions: rat, po, 5 mg/kg
Cynomolgus monkey [21] = assay: animal or person; conditions: Macaca fascicularis, po, 4 h, read-out: INH
in vitro [22] = conditions: dog, plasma
[23] = target: Tyrosine-protein kinase BTK (Mus musculus) (UniProt P35991); conditions: NZB/WF1, 0.2 mg/kg
Mus musculus [24] = organism: Mus musculus; assay: animal or person; conditions: NZB/WF1, po, 504 h, read-out: INH
in vivo [25] = conditions: rat, po, 5 mg/kg; remark: listed apart in the source
in vitro [26] = conditions: PAMPA, pH 7.4
[27] = target: Tyrosine-protein kinase BTK (Mus musculus) (UniProt P35991); conditions: DBA1/J, 2.5 mg/kg
[28] = target: Tyrosine-protein kinase BTK (Mus musculus) (UniProt P35991); conditions: 0.5 mg/kg; remark: listed apart in the source
in vitro [29] = conditions: human, plasma
in vivo [30] = conditions: dog, po, 2 mg/kg
in vivo [31] = conditions: mouse, po, 4 mg/kg
[32] = target: Tyrosine-protein kinase BTK (Mus musculus) (UniProt P35991); conditions: DBA1/J, 0.5 mg/kg
in vivo [33] = conditions: dog, iv, 1 mg/kg
in vivo [34] = conditions: rhesus monkey, iv, 1 mg/kg; remark: listed apart in the source
in vivo [35] = conditions: rhesus monkey, po, 2 mg/kg; remark: listed apart in the source
in vivo [36] = conditions: dog, iv, 1 mg/kg; remark: listed apart in the source
[37] = target: Tyrosine-protein kinase BTK (Mus musculus) (UniProt P35991); conditions: 0.5 to 2.5 mg/kg
in vivo [38] = conditions: dog, iv, 1 mg/kg; remark: listed apart in the source
B cell = assay: cells; conditions: Homo sapiens
in vivo [39] = conditions: mouse, iv, 2 mg/kg; remark: listed apart in the source
in vivo [40] = conditions: mouse, po, 4 mg/kg; remark: listed apart in the source
in vivo [41] = conditions: mouse, iv, 2 mg/kg; remark: listed apart in the source
physchem [42] = conditions: fed state simulated intestinal fluid (FeSSIF)
in vivo [43] = conditions: rat, po, 5 mg/kg; remark: listed apart in the source
physchem [44] = conditions: buffer, pH 1
in vivo [45] = conditions: mouse, po, 4 mg/kg; remark: listed apart in the source
in vivo [46] = conditions: rhesus monkey, po, 2 mg/kg; remark: listed apart in the source
in vivo [47] = conditions: mouse, plasma; remark: listed apart in the source
in vitro [48] = conditions: mouse, plasma
in vivo [49] = conditions: dog, iv, 1 mg/kg; remark: listed apart in the source
in vivo [50] = conditions: rat, po, 5 mg/kg; remark: listed apart in the source
in vitro [51] = conditions: PAMPA, pH 5.5
in vivo [52] = conditions: rhesus monkey, iv, 1 mg/kg; remark: listed apart in the source
in vitro [53] = conditions: human, Caco-2
in vivo [54] = conditions: dog, po, 2 mg/kg; remark: listed apart in the source
in vivo [55] = conditions: dog, po, 2 mg/kg; remark: listed apart in the source
[56] = target: Tyrosine-protein kinase BTK (Mus musculus) (UniProt P35991); conditions: DBA1/J, 0.1 mg/kg
in vivo [57] = conditions: rhesus monkey, po, 2 mg/kg; remark: listed apart in the source
in vivo [58] = conditions: mouse, po, 4 mg/kg; remark: listed apart in the source
Homo sapiens [59] = organism: Homo sapiens; conditions: 10 uM; remark: listed apart in the source
in vitro [60] = conditions: human, Caco-2; remark: listed apart in the source
Mus musculus [61] = organism: Mus musculus; conditions: DBA1/J, 0.1 to 2.5 mg/kg
Mus musculus [62] = organism: Mus musculus; assay: animal or person; conditions: NZB/WF1, po, 504 h, read-out: INH; remark: listed apart in the source
Mus musculus [63] = organism: Mus musculus; assay: animal or person; conditions: NZB/WF1, po, 504 h, read-out: INH; remark: listed apart in the source
in vivo [64] = conditions: rat, iv, 5 mg/kg; remark: listed apart in the source
in vivo [65] = conditions: mouse, iv, 2 mg/kg; remark: listed apart in the source
in vivo [66] = conditions: rat, iv, 5 mg/kg; remark: listed apart in the source
in vivo [67] = conditions: dog, po, 2 mg/kg; remark: listed apart in the source

C=CS(=O)(=O)N[C@@H]1CCCN(c2ccc(C(N)=O)c3[nH]c(C)c(C)c23)C1
remaining at 10 min (in vitro [1]): 84%

C=CS(=O)(=O)N[C@H]1CCCN(c2ccc(C(N)=O)c3[nH]c(C)c(C)c23)C1
half-life (in vitro [2]): 0.833 h | remaining at 10 min (in vitro [1]): 90% | Cmax (in vivo [3]): 0.127 µM

CC#C[14C](=O)N[C@H]1CCCN(c2c(F)cc(C(N)=O)c3[nH]c(C)c(C)c23)C1
dose excreted at 72 h (in vivo [4]): 0.7%

CC#CC(=O)N[C@H]1CCCN(c2c(F)cc(C(N)=O)c3[nH]c(C)c(C)c23)C1 [BRANEBRUTINIB]
clearance (in vivo [5]): 9.4 mL/min/kg | fraction unbound (in vitro [6]): 0.002 | Vd (in vivo [7]): 0.4 L/kg | half-life (in vivo [8]): 4.3 h | inhibition in vivo at 0.5 mg/kg (Cynomolgus monkey [9]): 74% | inhibition (Homo sapiens [10]): 23% | logD (physchem [11]): 3.18 | fraction unbound (in vitro [12]): 0.004 | Vd (in vivo [13]): 0.45 L/kg | solubility (physchem [14]): 9 µg/mL (≈ 24.3 µM) | inhibition [15]: 90% | Vd (in vivo [16]): 0.48 L/kg | inhibition in vivo at 2.5 mg/kg (Mus musculus [17]): 92% | bioavailability (in vivo [18]): 46% | inhibition [19]: 99% | AUC (in vivo [20]): 18 µM·h | inhibition in vivo at 0.5 mg/kg (Cynomolgus monkey [21]): 100% | fraction unbound (in vitro [22]): 0.002 | inhibition [23]: 92% | Cmax (in vivo [3]): 42 µM | inhibition in vivo at […] (Mus musculus [24]): 61% | Cmax (in vivo [25]): 9.6 µM | Papp (in vitro [26]): 97.8 ×10⁻⁶ cm/s | inhibition [27]: 99% | inhibition [28]: 86% | fraction unbound (in vitro [29]): 0.012 | bioavailability (in vivo [30]): 81% | Tmax (in vivo [31]): 1 h | inhibition [32]: 97% | half-life (in vivo [33]): 3 h | half-life (in vivo [34]): 3.2 h | Tmax (in vivo [35]): 1 h | clearance (in vivo [36]): 0.94 mL/min/kg | inhibition [37]: 25% | MRT (in vivo [38]): 4.1 h | IC50 (B cell): 0.04 nM | MRT (in vivo [39]): 0.57 h | AUC (in vivo [40]): 14 µM·h | half-life (in vivo [41]): 0.46 h | solubility (physchem [42]): 145 µg/mL (≈ 391 µM) | bioavailability (in vivo [43]): 74% | solubility (physchem [44]): 2 to 3 µg/mL (≈ 5.4 to 8.1 µM) | bioavailability (in vivo [45]): 106% | Cmax (in vivo [46]): 2.3 µM | AUC (in vivo [47]): 52 µM·h | fraction unbound (in vitro [48]): 0.004 | Vd (in vivo [49]): 0.24 L/kg | Tmax (in vivo [50]): 0.58 h | Papp (in vitro [51]): 85.9 ×10⁻⁶ cm/s | MRT (in vivo [52]): 1 h | Papp A→B (in vitro [53]): 17.7 to 42.2 ×10⁻⁶ cm/s | Cmax (in vivo [54]): 19 µM | AUC (in vivo [55]): 78 µM·h | inhibition [56]: 64% | AUC (in vivo [57]): 4.9 µM·h | Cmax (in vivo [58]): 7.7 µM | inhibition (Homo sapiens [59]): 3.1% | Papp B→A (in vitro [60]): 12.7 to 25 ×10⁻⁶ cm/s | inhibition (Mus musculus [61]): Active | inhibition in vivo at 0.5 mg/kg (Mus musculus [62]): 51% | inhibition in vivo at 0.2 mg/kg (Mus musculus [63]): 40% | MRT (in vivo [64]): 0.8 h | clearance (in vivo [65]): 14 mL/min/kg | clearance (in vivo [66]): 8.7 mL/min/kg | Tmax (in vivo [67]): 0.67 h

CC#CC(=O)N[C@H]1CCCN(c2ccc(C(N)=O)c3[nH]c(C)c(C)c23)C1
Cmax (in vivo [3]): 0.49 µM | AUC (in vivo [47]): 1.1 µM·h

— ChEMBL document CHEMBL4616583 (J Med Chem, 2019)
